According to a melting point compilation (Tetko et al.; mined from patent text by program, amines drawn as free bases though some values may be those of a salt):

Question: Which melting point does the source give for `O=C(O)c1cc(Br)cc2c1NCCS2(=O)=O` here?
Answer: Its melting point is 250 to 251 °C.

Question: Which melting point does the source give for `CC(C)N(CCON=C1c2ccccc2C2CC2c2ccccc21)C(C)C` (stereo not drawn) here?
Answer: The melting point was 97 to 98 °C.

Question: Which melting point does the source give for `Cc1onc(O)c1-c1ccccc1[N+](=O)[O-]` here?
Answer: Its melting point is 197 °C.

Question: For `NS(=O)(=O)c1cc(C(=O)O)cc(NCc2ccccc2)c1Oc1ccc(OCc2ccccc2)cc1`, which melting point is on record?
Answer: Its melting point is 249 to 251 °C.

Question: With `COC(=O)c1ccc(N2C(=O)CCC2(CBr)COC(=O)c2ccccc2)c([N+](=O)[O-])c1` (stereo not drawn) as the molecule, how does the melting point read?
Answer: The melting point was 183 to 184 °C.

Question: For `CN1CC(=O)NC1=NC(=O)Nc1cccc([N+](=O)[O-])c1`, which melting point is on record?
Answer: The melting point was 182 to 188 °C.

Question: Which melting point does the source give for `OC(Cc1ccncc1)(c1ccc(F)cc1)c1ccc(F)cc1` here?
Answer: The melting point was 158 to 160 °C.

Question: With `COc1cc(C(=O)C(C)C)cc([N+](=O)[O-])c1O` as the molecule, how does the melting point read?
Answer: The melting point was 85 to 87 °C.

Question: With `CC(C)(C)OC(=O)NCCCn1ncc2cc(Br)ccc2c1=O` as the molecule, how does the melting point read?
Answer: The melting point was 130 to 132 °C.

Question: With `CC(=O)CC(=O)N[C@H]1CC(=O)OC1=O` as the molecule, how does the melting point read?
Answer: The melting point was 132 to 135 °C.

Question: With `COc1ccc(NC(C)=O)cc1C(=O)O` as the molecule, how does the melting point read?
Answer: The melting point was 208 to 210 °C.

Question: For `CCCCCCCCCCCCCCCCCC(=O)Oc1cc(C=CC(=O)c2ccccc2)cc([N+](=O)[O-])c1O`, which melting point is on record?
Answer: Its melting point is 112 to 118 °C.

Question: Which melting point does the source give for `Cc1cc(F)ccc1C=CC#N` here?
Answer: Its melting point is 86 to 87 °C.

Question: For `O=c1ccn([C@@H]2C=CCC[C@@H]2O)c(=O)[nH]1` (racemic), which melting point is on record?
Answer: The melting point was 203 °C.

Question: With `Cc1cc(C(F)(F)F)c2cccc(O)c2n1` as the molecule, how does the melting point read?
Answer: The melting point was 60 to 61 °C.

Question: For `O=C(Nc1nccs1)C(CC1CCCC1)c1ccc(Cl)c([N+](=O)[O-])c1` (stereo not drawn), which melting point is on record?
Answer: Its melting point is 68 to 72 °C.

Question: With `Cc1nc2ccccn2c1-c1csc(Nc2cccc(C(=O)Nc3ccccc3N)c2)n1` as the molecule, how does the melting point read?
Answer: Its melting point is 195 to 197 °C.

Question: With `CCCc1c(OCc2ccc3ncc(CCC(=O)O)c(=O)n3c2)ccc(C(C)=O)c1O` as the molecule, how does the melting point read?
Answer: The melting point was 190 to 194 °C.

Question: Which melting point does the source give for `CC(C)(NC=O)c1ccc(C(F)(F)C(F)(F)c2ccccc2)cc1` here?
Answer: Its melting point is 116 to 117 °C.

Question: Which melting point does the source give for `COc1ccc(C(O)(CC#N)c2ccc(OC)cc2)cc1` here?
Answer: Its melting point is 102 °C.

Question: With `N#Cc1ncn(C2OC(COC(=O)c3ccccc3)C(OC(=O)c3ccccc3)C2OC(=O)c2ccccc2)c1C#N` (stereo not drawn) as the molecule, how does the melting point read?
Answer: Its melting point is 68 to 72 °C.

Question: Which melting point does the source give for `N#Cc1cc(F)c(-n2ncc(Cl)c(Cl)c2=O)cc1F` here?
Answer: The melting point was 206 °C.

Question: Which melting point does the source give for `CCCCc1c(Cc2ccc(-c3ccccc3-c3nnn[nH]3)cc2)c(C(=O)O)nn1CCCC` here?
Answer: The melting point was 108 °C.

Question: With `CCc1c(C)[nH]c(=O)c(I)c1Oc1cc(C)cc(C)c1` as the molecule, how does the melting point read?
Answer: The melting point was 240 °C.

Question: With `COc1cc(OC)cc(N2CCN(C(=O)N(C)c3cc4ccccc4nc3OC)CC2)c1` as the molecule, how does the melting point read?
Answer: The melting point was 88 to 89 °C.

Question: With `CCOC(=O)C1=C(C)Nc2ncnn2C1C` (stereo not drawn) as the molecule, how does the melting point read?
Answer: Its melting point is 155 to 157 °C.

Question: Which melting point does the source give for `CCCN1CCN(c2cccc3c2C[C@H](NC(C)=O)CC3)CC1` here?
Answer: The melting point was 139 to 140 °C.

Question: With `CCCCc1cc(OCc2ccc(-c3ccccc3C(=O)OC)cc2)c2ccccc2n1` as the molecule, how does the melting point read?
Answer: The melting point was 105 °C.

Question: With `O=C1COC(CNC(=O)c2cccnc2Oc2ccc(F)cc2)CN1` (stereo not drawn) as the molecule, how does the melting point read?
Answer: Its melting point is 157 to 159 °C.

Question: With `COC(=O)c1cc(N)c(Oc2ccccc2)c(N2CCCC2)c1` as the molecule, how does the melting point read?
Answer: Its melting point is 154 to 156 °C.

Question: For `CCOC(=O)c1[nH]c2cc3[nH]c(C)c(C(=O)OC)c3c(C)c2c1C`, which melting point is on record?
Answer: The melting point was 247 to 250 °C.

Question: Which melting point does the source give for `CN(C)CCSC(=O)c1c[nH]c(=S)n1C1CCc2c(F)cc(F)cc2C1` (stereo not drawn) here?
Answer: Its melting point is 204 to 206 °C.

Question: With `Ic1ccc(-c2cc[nH]c2)cc1` as the molecule, how does the melting point read?
Answer: The melting point was 164 to 165 °C.

Question: With `NCc1ccc(C2CCN(c3nc4c(cc3F)c(=O)c(C(=O)O)cn4C3CC3)C2)cc1` (stereo not drawn) as the molecule, how does the melting point read?
Answer: The melting point was 268 to 272 °C.

Question: With `CC(=O)N(c1ccc(N2CCN(C)CC2)cc1)c1ncc2c(n1)S/C(=C/c1ccc(C(=O)O)cc1)C(=O)N2` as the molecule, how does the melting point read?
Answer: The melting point was 326 to 330 °C.

Question: Which melting point does the source give for `CCNC(=O)Nc1ccc(-c2sc3c(c2CN(C)C(C)C)c(=O)n(-c2ccccc2)c(=O)n3Cc2c(F)cccc2F)cc1` here?
Answer: Its melting point is 208 to 210 °C.

Question: For `Fc1ccc(-c2ncn(CCCCl)c2-c2ccncc2)cc1`, which melting point is on record?
Answer: Its melting point is 139 to 140 °C.

Question: For `Cc1ccc(C)c(CN2C(=O)c3ccccc3C2=O)c1`, which melting point is on record?
Answer: The melting point was 148 to 150 °C.

Question: With `O=C(O)c1c(O)c(-c2ccc(-c3ccccc3)cc2)nc2c(Cl)cc(Cl)cc12` as the molecule, how does the melting point read?
Answer: The melting point was 215 to 217 °C.

Question: For `CC(C)(C)OC(=O)C1CCNC1=S` (stereo not drawn), which melting point is on record?
Answer: Its melting point is 110 to 111 °C.

Question: Which melting point does the source give for `CCOC(=O)Cc1cc(C)c(C(=O)c2ccc(Cl)c(Cl)c2)n1C` here?
Answer: Its melting point is 92 to 93.5 °C.

Question: Which melting point does the source give for `O=C1c2ccc(C(F)(F)F)cc2C(=O)c2cc3ccccc3cc21` here?
Answer: The melting point was 253 to 254 °C.

Question: For `CC(=O)N1CCCC2=C1CCc1cccc(Cl)c12`, which melting point is on record?
Answer: The melting point was 117 to 118 °C.

Question: With `CC(CN1CCCC1)N1c2ccccc2Sc2ccc(C(=O)NCC3CCCC3)cc21` (racemic) as the molecule, how does the melting point read?
Answer: Its melting point is 124 °C.

Question: With `CCN(CC)C(=O)c1c(S(N)(=O)=O)cc(OC)c(OC)c1C(C)C` as the molecule, how does the melting point read?
Answer: The melting point was 138 to 140 °C.

Question: Which melting point does the source give for `COc1ccc2c(c1)-c1cc(OC)ccc1C2=O` here?
Answer: Its melting point is 123 to 125 °C.

Question: Which melting point does the source give for `Cc1cccc(CN2CCc3ccc(C(=O)CCC(=O)N4CCC(c5ccc(Cl)cc5)CC4)cc3CC2)c1` here?
Answer: The melting point was 127 to 128 °C.

Question: With `CCCC1=C(C(=O)OCC)C(c2c(F)cccc2F)c2c[nH]nc2N1` (stereo not drawn) as the molecule, how does the melting point read?
Answer: Its melting point is 185 °C.
